Test results reported in article PMC4225009, “Structure-activity-relationship study of N-acyl-N-phenylpiperazines as potential inhibitors of the Excitatory Amino Acid Transporters (EAATs): improving the potency of a micromolar screening Hit is not truism” (SpringerPlus, 2013).
Like-named read-outs stand apart in the source and are kept apart here.

Tests used:
Format in all cases: cell-based
human EAAT2 = target: T1, human EAAT2 (Homo sapiens, UniProt P43004); experiment: [3H]-D-aspartate uptake assay at HEK293 cells stably expressing human EAAT2
T1 construct: expressed in transfected cells
T1 sequence (P43004 whole entry): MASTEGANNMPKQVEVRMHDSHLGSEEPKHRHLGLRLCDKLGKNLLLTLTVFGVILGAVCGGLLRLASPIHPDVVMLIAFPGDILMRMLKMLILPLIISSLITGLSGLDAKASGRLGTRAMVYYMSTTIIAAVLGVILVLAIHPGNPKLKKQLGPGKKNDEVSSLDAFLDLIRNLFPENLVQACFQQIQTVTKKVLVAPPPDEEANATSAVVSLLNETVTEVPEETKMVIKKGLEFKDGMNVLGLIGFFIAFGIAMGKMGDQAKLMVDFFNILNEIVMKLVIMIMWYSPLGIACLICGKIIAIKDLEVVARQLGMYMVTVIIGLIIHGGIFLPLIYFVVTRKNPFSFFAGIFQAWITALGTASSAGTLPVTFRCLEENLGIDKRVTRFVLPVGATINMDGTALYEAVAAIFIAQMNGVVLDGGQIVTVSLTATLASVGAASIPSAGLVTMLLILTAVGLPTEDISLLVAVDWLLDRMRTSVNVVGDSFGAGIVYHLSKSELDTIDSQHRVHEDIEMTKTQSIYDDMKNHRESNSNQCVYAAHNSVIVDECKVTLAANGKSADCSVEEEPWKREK
From the text: (§1) In total, […] piperazine analogs 2.1-2.40 and 3.1-3.12 were characterized pharmacologically at stable HEK293 cells expressing human EAAT1-3 in a [^3H]-D-aspartate uptake assay, (Jensen & Bräuner-Osborne [2004]) and the results are summarized in Table 1 and Table 2. […] Usually, such findings would lead to the conclusion that the bicyclo-[2.2.1]-heptanyl group occupies a promiscuous hydrophobic pocket, which could be optimized for increased potency. However, upon increasing or decreasing the hydrophobic bulk and/or flexibility, a clear drop in potency was observed (analogs 2.1-2.17, Table 1). […] These findings could open up for the hypothesis that the pocket is indeed not hydrophobic but instead hydrophilic in nature. Upon binding of the hydrophobic alkane group, water molecules are forced out and ligand binding is entropically driven rather than enthalpically. Thus analogs 2.18-2.31, which comprise a hydrophobic group, could be potential inhibitors.
(§2) Analogs 2.22-2.31, 2.36-2.40, 3.3, 3.4, 3.6 and 3.12 were obtained as 5 mg portions pre-dissolved in DMSO from ChemBridge corporation and used directly in the [3H]-Asp-uptake assay.

human EAAT3 = target: T2, human EAAT3 (Homo sapiens, UniProt P43005); experiment: [3H]-D-aspartate uptake assay at HEK293 cells stably expressing human EAAT3; conditions: for EAAT3 pIC50 ± S.E.M.: value in brackets, Table 1
T2 construct: expressed in transfected cells
T2 sequence (P43005 1-524): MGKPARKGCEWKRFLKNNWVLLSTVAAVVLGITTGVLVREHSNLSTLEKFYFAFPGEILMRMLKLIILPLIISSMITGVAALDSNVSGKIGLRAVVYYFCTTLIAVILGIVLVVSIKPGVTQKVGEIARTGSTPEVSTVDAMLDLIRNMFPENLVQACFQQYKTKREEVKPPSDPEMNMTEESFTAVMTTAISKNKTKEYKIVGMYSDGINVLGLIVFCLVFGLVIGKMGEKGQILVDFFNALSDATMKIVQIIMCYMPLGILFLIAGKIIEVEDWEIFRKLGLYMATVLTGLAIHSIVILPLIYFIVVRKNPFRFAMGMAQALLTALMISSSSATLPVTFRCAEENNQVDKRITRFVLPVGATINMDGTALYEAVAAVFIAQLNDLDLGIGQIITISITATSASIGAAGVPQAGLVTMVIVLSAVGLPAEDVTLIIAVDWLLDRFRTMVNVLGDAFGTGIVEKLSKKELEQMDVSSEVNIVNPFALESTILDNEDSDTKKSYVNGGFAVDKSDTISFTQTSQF
From the text: as §1, §2

human EAAT1 = target: T3, human EAAT1 (Homo sapiens, UniProt P43003); experiment: [3H]-D-aspartate uptake assay at HEK293 cells stably expressing human EAAT1
T3 construct: expressed in transfected cells
T3 sequence (P43003 whole entry): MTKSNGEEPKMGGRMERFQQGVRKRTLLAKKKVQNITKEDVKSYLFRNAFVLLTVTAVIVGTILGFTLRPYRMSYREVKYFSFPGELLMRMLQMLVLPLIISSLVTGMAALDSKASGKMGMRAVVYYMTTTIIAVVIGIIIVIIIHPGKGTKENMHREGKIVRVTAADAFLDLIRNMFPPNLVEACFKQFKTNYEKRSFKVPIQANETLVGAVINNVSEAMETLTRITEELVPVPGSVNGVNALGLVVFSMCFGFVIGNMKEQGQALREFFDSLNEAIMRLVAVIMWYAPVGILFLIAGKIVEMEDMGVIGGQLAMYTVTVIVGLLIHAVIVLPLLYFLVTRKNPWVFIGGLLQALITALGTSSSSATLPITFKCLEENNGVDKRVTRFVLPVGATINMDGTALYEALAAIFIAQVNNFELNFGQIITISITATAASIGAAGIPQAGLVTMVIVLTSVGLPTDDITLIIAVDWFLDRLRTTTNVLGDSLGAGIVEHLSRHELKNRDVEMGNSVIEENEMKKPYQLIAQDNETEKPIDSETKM
From the text: as §1, §2

human EAAT1-3 = experiment: [3H]-D-aspartate uptake assay, statements made for EAAT1-3 together; conditions: HEK293 cells expressing human EAAT1-3, [3H]-D-aspartate uptake
From the text: as §1, §2

[1] = [3H]-D-aspartate uptake, HEK293 cells stably expressing human EAAT2, analogs 1 and 2.1-2.40 (Table 1), read-out: EAAT2 IC50
[2] = [3H]-D-aspartate uptake, HEK293 cells stably expressing human EAAT3, analogs 1 and 2.1-2.40 (Table 1), read-out: EAAT3 IC50
[3] = [3H]-D-aspartate uptake, HEK293 cells stably expressing human EAAT1, analogs 1 and 2.1-2.40 (Table 1), read-out: EAAT1 IC50
[4] = D-aspartate uptake, HEK293 cells stably expressing human EAAT2, analogs 3.1-3.12 (Table 2), read-out: EAAT2 IC50
[5] = D-aspartate uptake, HEK293 cells stably expressing human EAAT3, analogs 3.1-3.12 (Table 2), read-out: EAAT3 IC50
[6] = D-aspartate uptake, HEK293 cells stably expressing human EAAT1, analogs 3.1-3.12 (Table 2), read-out: EAAT1 IC50

SMILES	IC50 (human EAAT2; [1])	IC50 (human EAAT3; [2])	IC50 (human EAAT1; [3])	IC50 (human EAAT2)	IC50 (human EAAT3)	IC50 (human EAAT1)	other results
FC(F)(F)c1cccc(N2CCN(CC3CC4CCC3C4)CC2)c1 (mixture of isomers) [(±)-endo-exo-2.34, (±)-endo-exo-Bicyclo[2.2.1]heptan-2-ylmethyl)-4-(3-(trifluoromethyl)phenyl)piperazine]	> 300 µM	> 300 µM	> 300 µM				
O=C(C1CC2CCC1C2)N1CCN(c2cccc(C(F)(F)F)c2)CC1 (mixture of isomers) [(±)-exo-1]	40 µM		10 µM				IC50 (human EAAT2; value in brackets, Table 1, read-out: EAAT2 pIC50 ± S.E.M. (converted)): 36.3 µM; IC50 (human EAAT1; value in brackets, Table 1, read-out: EAAT1 pIC50 ± S.E.M. (converted)): 9.33 µM; inhibitory activity at EAAT1-3 (in words) (human EAAT1-3): IC50 values at the three transporters in the mid-micromolar range
O=C([C@@H]1C[C@@H]2CC[C@H]1C2)N1CCN(c2cccc(C(F)(F)F)c2)CC1 (racemic) [(±)-endo-1, (±)-endo-Bicyclo[2.2.1]heptan-2-yl(4-(3-(trifluoromethyl)phenyl)piperazin-1-yl)methanone]	32 µM	10 µM	14 µM				EAAT2 pIC50 ± S.E.M. (human EAAT2; value in brackets, Table 1): 4.52 ± 0.12; EAAT3 pIC50 ± S.E.M. (human EAAT3): 5.04 ± 0.13; EAAT1 pIC50 ± S.E.M. (human EAAT1; value in brackets, Table 1): 4.88 ± 0.09; inhibitory activity at EAAT1-3 (in words) (human EAAT1-3): inhibitory potency in the mid-micromolar range
O=C(C1CC2CCC1C2)N1CCN(c2cccc(C(F)(F)F)c2)CC1 (racemic) [(±)-endo-exo-1, (±)-endo-exo-Bicyclo[2.2.1]heptan-2-yl(4-(3-(trifluoromethyl)phenyl)piperazin-1-yl)methanone]	42 µM	14 µM	14 µM				EAAT2 pIC50 ± S.E.M. (human EAAT2; value in brackets, Table 1): 4.42 ± 0.11; EAAT3 pIC50 ± S.E.M. (human EAAT3): 4.94 ± 0.16; EAAT1 pIC50 ± S.E.M. (human EAAT1; value in brackets, Table 1): 4.87 ± 0.08
O=C(C1CC2CCC1C2)N1CCN(c2ccccc2)CC1 (racemic) [(±)-endo-exo-3.1, Bicyclo[2.2.1]heptan-2-yl(4-phenylpiperazin-1-yl)methanone]							IC50 (human EAAT2; [4]): > 300 µM; IC50 (human EAAT3; [5]): > 300 µM; IC50 (human EAAT1; [6]): > 300 µM; inhibitory activity at EAAT1-3 (in words) (human EAAT1-3): loss of inhibitory activity
O=C(C1CC2CCC1C2)N1CCN(c2ccccc2C(F)(F)F)CC1 (racemic) [(±)-endo-exo-3.5, (±)-endo-exo-Bicyclo[2.2.1]heptan-2-yl(4-(2-(trifluoromethyl)phenyl)piperazin-1-yl)methanone]							IC50 (human EAAT2; [4]): > 300 µM; IC50 (human EAAT3; [5]): > 300 µM; IC50 (human EAAT1; [6]): ~300 µM; inhibitory activity at EAAT1-3 (in words) (human EAAT1-3): loss of inhibitory activity
O=C(C1CC2CCC1C2)N1CCN(c2cccc(Cl)c2)CC1 (racemic) [(±)-endo-exo-3.7, (±)-endo-exo-Bicyclo[2.2.1]heptan-2-yl(4-(3-chlorophenyl)piperazin-1-yl)methanone]							IC50 (human EAAT2; [4]): ~300 µM; IC50 (human EAAT3; [5]): > 300 µM; IC50 (human EAAT1; [6]): ~300 µM
N#Cc1cccc(N2CCN(C(=O)C3CC4CCC3C4)CC2)c1 (racemic) [(±)-endo-exo-3.9, 3-(4-(bicyclo[2.2.1]heptane-2-carbonyl)piperazin-1-yl)benzonitrile]							IC50 (human EAAT2; [4]): > 300 µM; IC50 (human EAAT3; [5]): > 300 µM; IC50 (human EAAT1; [6]): > 300 µM
COc1cccc(N2CCN(C(=O)C3CC4CCC3C4)CC2)c1 (racemic) [(±)-endo-exo-3.10, (±)-endo-exo-Bicyclo[2.2.1]heptan-2-yl(4-(3-methoxyphenyl)piperazin-1-yl)methanone]							IC50 (human EAAT2; [4]): > 300 µM; IC50 (human EAAT3; [5]): > 300 µM; IC50 (human EAAT1; [6]): > 300 µM
O=C(C1CC2CCC1C2)N1CCN(c2ccc(F)cc2F)CC1 (racemic) [(±)-endo-exo-3.11, (±)-endo-exo-Bicyclo[2.2.1]heptan-2-yl(4-(2,4-difluorophenyl)piperazin-1-yl)methanone]							IC50 (human EAAT2; [4]): > 300 µM; IC50 (human EAAT3; [5]): > 300 µM; IC50 (human EAAT1; [6]): > 300 µM
O=C(C1CC2CCC1CC2)N1CCN(c2cccc(C(F)(F)F)c2)CC1 (centres unmarked) [2.1, Bicyclo[2.2.2]octan-2-yl(4-(3-(trifluoromethyl)phenyl)piperazin-1-yl)methanone]	> 300 µM	> 300 µM	> 300 µM				
O=C(N1CCN(c2cccc(C(F)(F)F)c2)CC1)C12CC3CC(CC(C3)C1)C2 [2.2, Adamantan-1-yl(4-(3-(trifluoromethyl)phenyl)piperazin-1-yl)methanone]				> 300 µM	> 300 µM	> 300 µM	
O=C(C1CCCC1)N1CCN(c2cccc(C(F)(F)F)c2)CC1 [2.4, Cyclopentyl(4-(3-(trifluoromethyl)phenyl)piperazin-1-yl)methanone]				> 300 µM	> 300 µM	> 300 µM	
O=C(C1CC1)N1CCN(c2cccc(C(F)(F)F)c2)CC1 [2.5, Cyclopropyl(4-(3-(trifluoromethyl)phenyl)piperazin-1-yl)methanone]	> 300 µM	> 300 µM	> 300 µM				
CC(C)(C)C(=O)N1CCN(c2cccc(C(F)(F)F)c2)CC1 [2.6, 2,2-Dimethyl-1-(4-(3-(trifluoromethyl)phenyl)piperazin-1-yl)propan-1-one]				> 300 µM	> 300 µM	> 1000 µM	
CC(=O)N1CCN(c2cccc(C(F)(F)F)c2)CC1 [2.7, 1-(4-(3-(Trifluoromethyl)phenyl)piperazin-1-yl)ethanone]	> 100 µM	> 100 µM	> 1000 µM				
CC(C)CC(=O)N1CCN(c2cccc(C(F)(F)F)c2)CC1 [2.8, 3-Methyl-1-(4-(3-(trifluoromethyl)phenyl)piperazin-1-yl)butan-1-one]	> 300 µM	> 300 µM	> 300 µM				
CC(C)(C)CC(=O)N1CCN(c2cccc(C(F)(F)F)c2)CC1 [2.9, 3,3-Dimethyl-1-(4-(3-(trifluoromethyl)phenyl)piperazin-1-yl)butan-1-one]	> 300 µM	> 300 µM	> 300 µM				
CC(C)CCC(=O)N1CCN(c2cccc(C(F)(F)F)c2)CC1 [2.10, 4-Methyl-1-(4-(3-(trifluoromethyl)phenyl)piperazin-1-yl)pentan-1-one]	> 300 µM	> 300 µM	> 300 µM				
O=C(c1cccc(Oc2ccccc2)c1)N1CCN(c2cccc(C(F)(F)F)c2)CC1 [2.13, (3-Phenoxyphenyl)(4-(3-(trifluoromethyl)phenyl)piperazin-1-yl)methanone]	> 300 µM	> 300 µM	> 300 µM				
O=C(c1cccc2ccccc12)N1CCN(c2cccc(C(F)(F)F)c2)CC1 [2.15, Naphthalen-1-yl(4-(3-(trifluoromethyl)phenyl)piperazin-1-yl)methanone]				> 300 µM	> 300 µM	> 300 µM	
O=C(c1cccs1)N1CCN(c2cccc(C(F)(F)F)c2)CC1 [2.16, Thiophen-2-yl(4-(3-(trifluoromethyl)phenyl)piperazin-1-yl)methanone]				> 100 µM	> 100 µM	> 100 µM	
O=C(Cc1ccccc1)N1CCN(c2cccc(C(F)(F)F)c2)CC1 [2.17, 1-(4-(3-(Trifluoromethyl)phenyl)piperazin-1-yl)-2-phenylethanone]				> 300 µM	> 1000 µM	> 300 µM	
Nc1ccc(C(=O)N2CCN(c3cccc(C(F)(F)F)c3)CC2)cc1 [2.18, 4-Aminophenyl-(4-(3-(trifluoromethyl)phenyl)piperazin-1-yl)methanone]				> 300 µM	> 300 µM	> 300 µM	
Nc1cccc(C(=O)N2CCN(c3cccc(C(F)(F)F)c3)CC2)c1 [2.19, 3-Aminophenyl-(4-(3-(trifluoromethyl)phenyl)piperazin-1-yl)methanone]				> 300 µM	> 300 µM	> 300 µM	
NCC(=O)N1CCN(c2cccc(C(F)(F)F)c2)CC1 [2.20, 2-Amino-1-(4-(3-(trifluoromethyl)phenyl)piperazin-1-yl)ethanone]				> 300 µM	> 300 µM	> 300 µM	
FC(F)(F)c1cccc(N2CCN(Cc3ccccc3)CC2)c1 [2.35, 1-Benzyl-4-(3-(trifluoromethyl)phenyl)piperazine]				> 300 µM	> 1000 µM	> 300 µM	
